Patent US9475855B2, “Human Notch3 based fusion proteins as decoy inhibitors of Notch3 signaling” (THE TRUSTEES OF COLUMBIA UNIVERSITY IN THE CITY OF NEW YORK, priority 2008, dated 2016)

Key:
Type in all cases: cell-based, human
Notch3 = assay: quantitative RT-PCR of Prox1-induced Notch3 expression in HUVEC; conditions: Ad-Prox1 infected HUVEC, 24 hours
Procedure: (A) It was examined if extopic expression of Prox1 would alter the expression of Notch proteins or ligands. Twenty-four hours post adenoviral infection with either Ad-Prox1 or Ad-LacZ, HUVEC total RNA was isolated and quantitative RT-PCR for Notch1-4, Dll4 and Jagged1 performed. […] (B) Compound E (cE), Presenlin inhibitor that inhibits Notch signaling, was incubated for 24 hours on either Ad-LacZ or Ad-Prox1 infected HUVEC. Total RNA was isolated and quantitative PCR performed to determine Notch3 expression.
It was examined if ectopic expression of Prox1 would alter the expression of Notch proteins or ligands. […] Total RNA was isolated and quantitative RT-PCR performed to determine Notch3 expression. Prox1 induced Notch3 expression and this induction was inhibited by the addition of compound E.

ephrinB2 = assay: quantitative RT-PCR of Prox1-induced Notch-target gene ephrinB2 in HUVEC; conditions: Ad-Prox1 infected HUVEC, 24 hours
Procedure: (§1) HUVEC were infected with adenoviruses encoding LacZ, Prox1, N1Ic or N4/int-3. Compound E(cE), Presenlin inhibitor that inhibits Notch signaling, was incubated for 24 hours on either Ad-LacZ or Ad-Prox1 infected HUVEC and total RNA isolated. Quantitative RT-PCR was performed for the endothelial Notch-target genes, VEGFR-3, EphrinB2, and Hey2. The Prox-1 mediated induction of the Notch target genes, ephrinB2, VEGFR-3 and Hey2 was inhibited by the addition of the Notch signaling inhibitor Compound E. Thus, Prox1 regulates the expression of ephrinB2, VEGFR-3 and Hey2 via Notch.
as §1, with “E, as shown in FIG. 48.” for “E.”

VEGFR-3 = assay: quantitative RT-PCR of Prox1-induced Notch-target gene VEGFR-3 in HUVEC; conditions: Ad-Prox1 infected HUVEC, 24 hours
Procedure: as §1
as §1, with “E, as shown in FIG. 48.” for “E.”

Hey2 = assay: quantitative RT-PCR of Prox1-induced Notch-target gene Hey2 in HUVEC; conditions: Ad-Prox1 infected HUVEC, 24 hours
Procedure: as §1
as §1, with “E, as shown in FIG. 48.” for “E.”

Ad-N1IC-transduced HUVEC = assay: Notch-induced HUVEC budding on collagen gel
Procedure: HUVEC were transduced with either Ad-LacZ or Ad-N1IC at 40 MOI. FIGS. 23A-23C show the effect of inhibitors for receptor tyrosine kinases on Notch-induced HUVEC budding. FIG. 23A is a photograph of budding of Ad-N1IC-transduced HUVEC treated with PD166866, ZD1893 at 1 μm and SU5416 at 0.5 μm. […] FIGS. 23D-E show induction of Flt-1 expression in Ad-N1IC-transduced HUVEC. […] FIGS. 23F-G show promotion of Notch-induced HUVEC budding with P1GF stimulation. Ad-N1IC-transduced HUVEC were cultured on collagen gel with SFM, instead of complete medium, in the absence or presence of 50 ng/ml P1GF. […] FIGS. 23H-I show the effect of Flt-1 siRNA transfection on Flt1 expression. Ad-N1IC-transduced HUVEC were transfected with 200 pmol of either control (CT) or Flt-1 siRNA. […] Ad-N1IC-transduced HUVEC were transfected with either 100 or 200 pmol of siRNA and cultured on collagen gel for 2 days.
These Figures show inhibition of budding of Ad-N1IC-transduced HUVEC with treatment of matrix metallo-proteinase inhibitor GM6001. Either Ad-LacZ or Ad-N1IC-HUVEC at a MOI of 40 pfu/cell were cultured on collagen gel for 5 days in the absence or presence of GM6001 at 50 μm.
To test whether Notch signaling is down-stream of VEGF, we evaluated three distinct inhibitors for receptor tyrosine kinases, including VEGFR on N1IC-induced HUVEC budding, because three growth factors existed in complete medium (FIG. 23A-C). […] Thus, we examined whether activation of Notch signaling affected Flt1/VEGFR1 expression in HUVEC, because SU5416 inhibits both Flt1 and Flk1 kinase activity (15). […] P1GF increased the number of Ad-N1IC-HUVEC buds by 150%, compared to the absence of P1GF (FIG. 23F). Moreover, P1GF increased HUVEC buds containing multiple filopodia by 250% (FIG. 23G). […] Transfection with Flt1 siRNA inhibited budding of both Ad-N1IC- and Ad-VEGF-HUVEC to a similar extent (data not shown).

CBF1 promoter activity = assay: VEGF-induced Notch signaling, CBF1 promoter (CSL-luciferase) reporter activity in HUVEC; conditions: Ad-VEGF-transduced HUVEC
Procedure: To determine VEGF-induced Notch signaling, HUVEC which were infected with adenovirus were used. HUVEC plated 1-day prior in 6 well plates at 8.0×10^5 were infected with either Ad-LacZ as control or Ad-VEGF at indicated m.o.i. in the presence or absence of Ad-N1ECD/Fc. Two days after infection, infected HUVEC were re-seeded into 24-well plate at 1.5×10^5 cell in triplicate and cultured for 24 hours, and then transfected with 12.5 ng pRL-SV40 (Promega) and 137.5 ng pGA981-6 using Effectene transfection reagent (Qiagen). Cells were harvested either 1 or 2 days post-transfection and luciferase activity was determined by using the Dual-Luciferase® Reporter Assay System (Promega).
One can measure Notch signaling function by measuring transcriptional activity of CBF1 promoter, which is activated by binding of Notch-IC to CBF1. We measured CBF1 promoter activity in HUVEC which was infected with adenovirus encoding VEGF-165 at different MOI (FIG. 6). Induction of CBF1 promoter was clearly detected in Ad-VEGF-infected HUVEC, compared to Ad-LacZ-infected cells in the MOI dependent manner. […] Thus VEGF induced Notch signaling activity.

HUVEC = HUVEC proliferation (CCK-8 kit); conditions: SFM with 1% FBS, 4 days (FIG. 26B)
Procedure: These Figures show proliferation of Ad-VEGF165-transduced HUVEC. HUVEC were transduced with Ad-VEGF165 at the indicated dosages. Ad-LacZ was also co-infected to make the same total amount of adenovirus at a MOI of 40 pfu/cell. HUVEC were suspended in SFM supplemented with 1% FBS and then plated at 1×10^4 cells/well in 24-well multi-wll plates with 0.4 ml of medium. After 4 days, cell numbers were determined using the CCK-8 kit and the results are indicated as the ratio of cell numbers determined to the number of control cells, which were transduced with Ad-GFP at a MOI of 40 pfu/cell. […] Ad-VEGF-transduced HUVEC were treated with SU5416 at the indicated dosages.
These Figures show the effect of alteration of Notch signaling on cell proliferation. The cells were transduced with the indicated adenoviruses. Ad-GFP was also co-infected to make the same total amount of adenovirus at a MOI of 60 pfu/cell. After 4 days, cell numbers were determined using the CCK-8 kit and results are indicated as the ratio of cell numbers determined to the number of control cells, which were transduced with AD-GFP at MOI of 60 pfu/cell. […] Transduced HUVEC were suspended in complete medium and then plated at 1×10^4 cells/well in 24-well multiwell plates with 0.4 ml of indicated medium (□: Ad-N1IC; ▪: Ad-N1ECDFc). […]

[1] = receptor tyrosine kinase inhibitors, 1 μM, complete medium

## C[C@H](NC(=O)Cc1cc(F)cc(F)c1)C(=O)N[C@H]1N=C(c2ccccc2)c2ccccc2N(C)C1=O [Compound E]
Notch3
  Prox1 induction of Notch3 expression: inhibited
ephrinB2
  Prox-1 mediated induction of ephrinB2: inhibited
VEGFR-3
  Prox-1 mediated induction of VEGFR-3: inhibited
Hey2
  Prox-1 mediated induction of Hey2: inhibited

## CNC(=O)[C@H](Cc1c[nH]c2ccccc12)NC(=O)[C@@H](CC(=O)NO)CC(C)C [GM6001]
Ad-N1IC-transduced HUVEC; GM6001 at 50 μm, collagen gel, 5 days
  budding of Ad-N1IC-HUVEC: clearly decreased
Ad-N1IC-transduced HUVEC; fibrin gel (data not shown)
  budding of Ad-N1IC-HUVEC: clearly decreased

## COc1cc(OC)cc(-c2cc3cnc(N)nc3nc2NC(=O)NC(C)(C)C)c1 [P13166866]
Ad-N1IC-transduced HUVEC; [1]
  budding of Ad-N1IC-HUVEC: Neither P13166866 or ZD1893 affected budding

## Cc1cc(C)c(/C=C2\C(=O)Nc3ccccc32)[nH]1 [SU5416, reference compound]
CBF1 promoter activity
  VEGF-induced CBF1 promoter / CSL-luciferase reporter activity: decreased
Ad-N1IC-transduced HUVEC; lower concentrations, dose-dependency (FIG. 23C)
  budding of Ad-N1IC-HUVEC versus viability: selectively inhibited
Ad-N1IC-transduced HUVEC; [1]
  budding of Ad-N1IC-HUVEC: clearly inhibited
HUVEC
  proliferation of Ad-VEGF-transduced HUVEC: inhibitory effect

B1: P1GF: placental growth factor, a selective ligand for Flt1 (protein, UniProt P49763 19-221, looked up)
Placenta growth factor: LPAVPPQQWALSAGNGSSEVEVVPFQEVWGRSYCRALERLVDVVSEYPSEVEHMFSPSCVSLLRCTGCCGDENLHCVPVETANVTMQLLKIRSGDRPSYVELTFSQHVRCECRHSPGRQSPDMPGDFRADAPSFLPPRRSLPMLFRMEWGCALTGSQSAVWPSSPVPEEIPRMHPGRNGKKQQRKPLREKMKPERCGDAVPRR
Ad-N1IC-transduced HUVEC; 50 ng/ml P1GF, SFM
  increase of HUVEC buds containing multiple filopodia: 250%
Ad-N1IC-transduced HUVEC; 50 ng/ml P1GF, SFM, compared to the absence of P1GF
  increase of the number of Ad-N1IC-HUVEC buds: 150%
